Patent US20240327407A1, “NOVEL INHIBITORS OF AUTOTAXIN” (CADILA HEAL THCARE LIMITED, priority 2021, published 2024)

target: ATX (Mus musculus (Mouse), UniProt Q9R1E6); test: Mice serum ATX inhibitory activity (IC50 determination); format: biochemical
Experimental: ATX Inhibitory activity was determined in a biochemical or whole blood assay as described previously (Bretschneider, T. et al., SLAS Discov 2017, 22, 425). The biochemical reaction consisted of 50 mM Tris (pH 8.0), 3 mM KCl, 1 mM CaCl2, 1 mM Mg Cl2, […] NaCl and 0.1% bovine serum albumin, which was supplemented with 5 nM recombinant rat ATX, 5 μM 18:1 LPC and the test compound (0.1-10 μM). The reaction was stopped at 2 h by the addition of butanol, prior to the RapidFire-MS-based analysis.
The whole blood assay consisted of 45 μL μL heparinized mice/rat whole blood and the test compound (0.12-100 μM). The reaction was stopped after 1 h at 37° C. by addition of 100 μL 40 mM disodium hydrogen phosphate buffer containing 30 mM citric acid (pH 4) and 1 μM 17:0 LPA (internal standard). Afterwards the samples were treated a described above and analysed by LC-MS/MS. The data was analyzed using graph pad prism (v 7.03) to arrive at the half-maximal inhibitory concentrations (IC50) of the test compounds.

Compound | IC50 [nM]
COc1ccc(F)c(C(=O)N[C@@H](C(=O)N2CCC3(CC2)C(=O)N(C)CC3c2ccccc2)C(C)C)c1 (stereo partly drawn) [Compound 105, 2-fluoro-5-methoxy-N-((2R)-3-methyl-1-(2-methyl-1-oxo-4-phenyl-2,8-diazaspiro[4.5]decan-8-yl)-1-oxobutan-2-yl)benzamide] | 25.6
CC(C)[C@@H](NC(=O)c1cc(C(F)(F)F)ccc1F)C(=O)N1CCC2(CC1)C(=O)N(C)C(=O)C2c1ccccc1 (stereo partly drawn) [Compound 1, 2-fluoro-N-((2R)-3-methyl-1-(2-methyl-1,3-dioxo-4-phenyl-2,8-diazaspiro[4.5]decan-8-yl)-1-oxobutan-2-yl)-5-(trifluoromethyl)benzamide] | 91
CC(C)[C@@H](NC(=O)c1nn(C)c2ccccc12)C(=O)N1CCC2(CC1)CN(C)CC2c1ccc(F)cc1 (stereo partly drawn) [Compound 153, N-((2R)-1-(4-(4-fluorophenyl)-2-methyl-2,8-diazaspiro[4.5]decan-8-yl)-3-methyl-1-oxobutan-2-yl)-1-methyl-1H-indazole-3-carboxamide] | 48.4
CN1CC(c2ccc(F)cc2)C2(CCN(C(=O)[C@H](NC(=O)c3cc(C(F)(F)F)ccc3F)c3ccccc3)CC2)C1 (stereo partly drawn) [Compound 140, 2-fluoro-N-((1R)-2-(4-(4-fluorophenyl)-2-methyl-2,8-diazaspiro[4.5]decan-8-yl)-2-oxo-1-phenylethyl)-5-(trifluoromethyl)benzamide] | 11.5
CCN1CC(c2ccc(F)cc2)C2(CCN(C(=O)[C@H](NC(=O)c3cc(C(F)(F)F)ccc3F)C(C)C)CC2)CC1=O (stereo partly drawn) [Compound 177, N-((2R)-1-(9-ethyl-7-(4-fluorophenyl)-10-oxo-3,9-diazaspiro[5.5]undecan-3-yl)-3-methyl-1-oxobutan-2-yl)-2-fluoro-5-] | 17.2
CC(C)[C@@H](NC(=O)c1cc(C(F)(F)F)ccc1F)C(=O)N1CCC2(CC1)C(=O)N(C)C=C2c1ccccc1 [Compound 106, (R)-2-fluoro-N-(3-methyl-1-(2-methyl-1-oxo-4-phenyl-2,8-diazaspiro[4.5]dec-3-en-8-yl)-1-oxobutan-2-yl)-5-(trifluoromethyl)benzamide] | 55.6
CC(C)[C@@H](NC(=O)c1cc(C(F)(F)F)ccc1F)C(=O)N1CCC2(CC1)CN(C)C[C@@H]2c1ccc(F)cc1 [Compound 133, 2-fluoro-N-((R)-1-((R)-4-(4-fluorophenyl)-2-methyl-2,8-diazaspiro[4.5]decan-8-yl)-3-methyl-1-oxobutan-2-yl)-5-(trifluoromethyl)benzamide] | 12

Second part, the compound after the results:

IC50 [nM] | Compound
44.4 | CC(C)[C@@H](NC(=O)c1cc(C(F)(F)F)ccc1F)C(=O)N1CCC2(CC1)CN(C(C)C)CC2c1ccc(F)cc1 (stereo partly drawn) [Compound 120, 2-fluoro-N-((2R)-1-(4-(4-fluorophenyl)-2-isopropyl-2,8-diazaspiro[4.5]decan-8-yl)-3-methyl-1-oxobutan-2-yl)-5-(trifluoromethyl)benzamide]
40.4 | Cc1cc(C)cc(C2CN(C)CC23CCN(C(=O)[C@H](NC(=O)c2cc(C(F)(F)F)ccc2F)C(C)C)CC3)c1 (stereo partly drawn) [Compound 138, N-((2R)-1-(4-(3,5-dimethylphenyl)-2-methyl-2,8-diazaspiro[4.5]decan-8-yl)-3-methyl-1-oxobutan-2-yl)-2-fluoro-5-(trifluoromethyl)benzamide]
9.9 | CC(C)[C@@H](NC(=O)c1cc(C(F)(F)F)ccc1F)C(=O)N1CCC2(CCN(C)CC2c2ccccc2)CC1 (stereo partly drawn) [Compound 220, 2-fluoro-N-((2R)-3-methyl-1-(9-methyl-7-phenyl-3,9-diazaspiro[5.5]-undecan-3-yl)-1-oxobutan-2-yl)-5-(trifluoromethyl)benzamide]
10.2 | Cc1ccnc(C(=O)N[C@@H](C(=O)N2CCC3(CC2)CN(C)CC3c2cccnc2)C(C)C)c1 (stereo partly drawn) [Compound 162, 4-methyl-N-((2R)-3-methyl-1-(2-methyl-4-(pyridin-3-yl)-2,8-diazaspiro[4.5]decan-8-yl)-1-oxobutan-2-yl)picolinamide]
12 | CC(C)[C@H](NC(=O)c1cc(C(F)(F)F)ccc1F)C(=O)N1CCC2(CC1)CC(=O)N(C)CC2c1ccccc1 (stereo partly drawn) [Compound 185, 2-fluoro-N-((2S)-3-methyl-1-(9-methyl-10-oxo-7-phenyl-3,9-diazaspiro-[5.5]undecan-3-yl)-1-oxobutan-2-yl)-5-(trifluoromethyl)benzamide]
1.7 | COc1ccc(C2CN(C)C(=O)C23CCN(C(=O)[C@H](NC(=O)c2cc(C(F)(F)F)ccc2F)C(C)C)CC3)cc1 (stereo partly drawn) [Compound 114, 2-fluoro-N-((2R)-1-(4-(4-methoxyphenyl)-2-methyl-1-oxo-2,8-diazaspiro[4.5]decan-8-yl)-3-methyl-1-oxobutan-2-yl)-5-(trifluoromethyl)benzamide]
4.1 | CC(C)C[C@@H](NC(=O)c1cc(C(F)(F)F)ccc1F)C(=O)N1CCC2(CC1)CN(C)CC2c1ccc(F)cc1 (stereo partly drawn) [Compound 147, 2-fluoro-N-((2R)-1-(4-(4-fluorophenyl)-2-methyl-2,8-diazaspiro[4.5]decan-8-yl)-4-methyl-1-oxopentan-2-yl)-5-(trifluoromethyl)benzamide]
